# According to US11471478B2, “Use of cyclodextrins in diseases and disorders involving phospholipid dysregulation” (priority 2017, dated 2022):
# Marks after values point to notes of the source that are not given here.
# Legend:
# [1] = system: MDA-MB 231 and MCF-7 human breast epithelial cell lines; test: Wound healing / gap closure migration assay; format: cell-based; conditions: for inhibition of migration, 1 mM HP-α-CD versus 2 mM HP-β-CD: MDA-MB-231 and MCF-7
# Description: Published results have shown that β-CD inhibits human MDA-MB 231 cell migration (Guerra F S, Sampaio LdS, et al. (2016) Translational Medicine Communications 1:3). This inhibition was attributed to the ability of β-CD to “deplete cholesterol”. β-CD, however, depletes also phospholipids. […] Cells were cultured in 24-well culture plates (Cytoselect CBA-120, 0.9 mm wound healing/gap closure migration assay) for 24 h with wound healing insert in place. Cells were then treated for 2 h with HP-β-CD, HP-α-CD, or control. Protocol: Warm up the 24-well plate (CBA-120, Cell BioLabs Inc.) with 0.9 mm CytoSelect Wound Healing Inserts at room temperature for 10 min. Using sterile forceps, orient the desired number of inserts in the plate wells with their “wound field” aligned in the same direction. […] Add 500 μL of cell suspension to each well by carefully inserting the pipette tip through the open end at the top of the insert. For optimal cell dispersion, add 250 μL of cell suspension to either side of the open ends at the top of the insert. Incubate cells in a cell culture incubator for 12-24 hours. Carefully remove the insert from the well to begin the wound healing assay. Use sterile forceps to grab and lift the insert slowly from the plate well. Slowly aspirate and discard the media from the wells. Wash wells with media to remove dead cells and debris. Finally, add media to wells to keep cells hydrated. Repeat wash if wells still have debris or unattached cells. When washing is complete, add media with FBS and/or compounds to continue cell culture and wound healing process. Agents that inhibit or stimulate cell migration can be added directly to the wells. Incubate cells in a cell culture incubator (2 hours) and then wash cells with PBS and then add fresh media without compounds. Incubate 12-24 hours before wash and fixing. Remove the fixation solution and add 400 μL of Cell Stain Solution to each well. Allow the stain to incubate with the cells for 15 minutes at room temperature. Aspirate and discard the solution. Carefully wash each stained well 3× with deionized water. Discard washes and allow cells to dry at room temperature. Cells that migrated into the wounded area or protruded from the border of the wound were visualized and photographed under an inverted microscope. Determine the surface area of the defined wound area: Total Surface Area=0.9 mm×length. Determine the surface area of the migrated cells into the wound area: Migrated Cell Surface Area=length of cell migration (mm)×2× length. Percent Closure (%)=Migrated Cell Surface Area/Total Surface Area×100 (see FIG. 36)
# [2] = system: MDA-MB-231 breast cancer cells; test: NSG mice injected with human MDA-MB-231 breast cancer cells; format: in vivo
# Description: NSG mice (NOD.Cg-Prkdcscid Il2rgtm1Wjl/SzJ, strain #005557 (10 wk old) were obtained from Jackson Laboratories (Bar Harbor, Me.), housed in isolated quarters, and fed with autoclaved water and food.
# An MDA-MB-231 cell line was obtained (ATCC) and kept frozen in liquid nitrogen. Upon start of culture, cells were thawed (1.5 min in 37° C. water) and transferred to DMEM/F-12 supplemented with 5% FBS, 2 mM L-glutamine, 1 mM sodium pyruvate, and 0.02 mM non-essential amino acids. Cells were grown to several millions in 60 mm dishes at 70-80% confluence. Before injection, cells were briefly rinsed twice in PBS followed by Versene (EDTA, Invitrogen) and placed on ice with excess phosphate-buffered saline and phenol red-free matrigel basement membrane extract to a concentration of about 15 mg/mL matrigel. 100 μL cell mixture (20,000 cells or saline only) were injected into the lactiferous duct of the 3rd or 4th mammary glands under brief isofluorane anesthesia. Groups of 15 mice each were injected IP with 800 mg/kg of HP-α-CD, HP-β-CD per week (over four days, Mon, Tue, Thu, Fri), or saline (control) for six weeks. Size of the primary tumor was measured weekly.
# Breast tissue were palpated and measured twice a week with a micro-metric analytical device scaled to 1 mm precision. Mice were weighed weekly on a digital scale (0.1 g precision).
# At the end of the study period, mice were anaesthetized with isofluorane with 1× phosphate-buffered saline (PBS) and subsequently with 4% formaldehyde in PBS. Tissue from lung and liver were removed and fixated in formalin for microscopic examination. Metastases were visualized and counted by tissue embedding in paraffin and sectioning with immunohistochemistry and histological stain (H&E) and immunostained with anti-HLA antibody. After blocking for 1 h with BSA (5%, frac V), the anti-HLA was incubated at 4° C. overnight, washed for 1 h in PBS, then incubated with biotinylated anti-mouse IgG for 1 h at room temperature. After washing with PBS, metastases were detected on the slide using Envision (Dako).
# After blood collection, whole blood samples were centrifuged (at 10,000 m/s^2 for 15 min and then at 100,000 m/s^2 for 10 min), and plasma was isolated. The samples were stored at −80° C. until analysis.
# Prior to analysis (30 min), samples and assay reagents were equilibrated to room temperature. The samples were run at a 1:4 dilution and quantified in duplicate using a multi-plex mouse panel for quantification of IL-1β, IL-18, IL-6, IL-8, IL-17A, and GM-CSF (Bio-Plex Pro assays, Bio-Rad Laboratories) on a Luminex Bio-Plex 200 System (Bio-Rad Laboratories).
# HTT mice = HTT mice (R6/2), bodyweight; format: in vivo; conditions: 8 wk old HTT mice, over 5 wk
# Description: (§1) ALS mice SOD1 G93A strain (B6SJL-Tg(SOD1*G93A)1Gur/J strain #002726, 10 wk old, and HTT mice (B6CBA-Tg(HDexon1)62Gpb/33; strain #006494 HTT: R6/2, 8 wk old), were obtained from Jackson Laboratories (Bar Harbor, Me.), housed in standard housing with controlled ambient conditions and provided with water and food at libitum.
# SOD1 mice = test: ALS mice SOD1 G93A, bodyweight; format: in vivo; conditions: untreated mice began to lose bodyweight after 21 days
# Description: as §1
# [3] = Randomized n-of-1 human PK/PD study: FPLC of morning urine after oral HP-α-CD preparations; conditions: in vivo
# Description: Urine samples (5-10 mL) were pipetted into culture tubes and then frozen for 30 min and samples were then lyophilized for 48-72 h, sealed and stored at −80° C. Phospholipids were extracted from urine samples after reconstitution, with chloroform (CHCl3) and methanol (3:1), and filtered through glass wool. The eluent was washed with 1 M KCl with 0.01% sodium azide. The wash was centrifuged at 3000 g for 30 min and CHCl3 layer transferred to fresh tube and evaporated at 60° C. under nitrogen. Phospholipid extracts and standards were digested in 10 M H2SO4 with 0.16 Ca(NO3)2 and 30% H2O2 and heated for 25 min at 180° C. […] These were vortexed and heated at 35° C. for 30 min. All samples were analyzed in triplicate.
# This was coupled to a Beckman Ultra SI column using an isocratic elution profile along a mobile phase of acetonitrile-methanol-phosphoric acid solvent (100:10:1.8) at a flow rate of 1.0 mL/min at RT. The lyophilized samples were resuspended in a hexane-propanol-phenolphthalene mix (3:1:0.1) before injection.
# The standard curves (FIG. 43) were generated using DiPalmitoyl-PC in the range of 0.65-32 μM phosphate equivalence. Percentage efficiency of isolation was determined through a comparison of the extraction recovery of total phosphate from normal urine spiked with known amount of synthetic PL with a parallel PL sample digested and assayed without extraction.
# erythrocytes = conditions: read-out: hemolytic IC50; cited from earlier work
# SwN2a cells = conditions: cited from earlier work
# Npc1−/− mice = conditions: mouse, in vivo; cited from earlier work
# whole blood = conditions: cited from earlier work
# BBB = conditions: cited from earlier work
# [4] = system: heterogeneous human epithelial colorectal adenocarcinoma (Caco-2) cells; conditions: cited from earlier work
# [5] = i.v.; cited from earlier work
# rats = conditions: rat, in vivo, iv; cited from earlier work
# mice/rats = conditions: in vivo; cited from earlier work
# keratinocytes = conditions: cited from earlier work
# [6] = system: fibroblasts of lysosomal storage diseases; conditions: about 6 mM α-CD, about 8 mM HP-β-CD; cited from earlier work
# [7] = system: HeLa cells transfected with α-synuclein; conditions: 20 mM for 1 hr; cited from earlier work
# [8] = target: T1, breast cancer resistance protein (BCRP) (Homo sapiens, UniProt Q9UNQ0); conditions: cited from earlier work
# T1 sequence (Q9UNQ0 1-655): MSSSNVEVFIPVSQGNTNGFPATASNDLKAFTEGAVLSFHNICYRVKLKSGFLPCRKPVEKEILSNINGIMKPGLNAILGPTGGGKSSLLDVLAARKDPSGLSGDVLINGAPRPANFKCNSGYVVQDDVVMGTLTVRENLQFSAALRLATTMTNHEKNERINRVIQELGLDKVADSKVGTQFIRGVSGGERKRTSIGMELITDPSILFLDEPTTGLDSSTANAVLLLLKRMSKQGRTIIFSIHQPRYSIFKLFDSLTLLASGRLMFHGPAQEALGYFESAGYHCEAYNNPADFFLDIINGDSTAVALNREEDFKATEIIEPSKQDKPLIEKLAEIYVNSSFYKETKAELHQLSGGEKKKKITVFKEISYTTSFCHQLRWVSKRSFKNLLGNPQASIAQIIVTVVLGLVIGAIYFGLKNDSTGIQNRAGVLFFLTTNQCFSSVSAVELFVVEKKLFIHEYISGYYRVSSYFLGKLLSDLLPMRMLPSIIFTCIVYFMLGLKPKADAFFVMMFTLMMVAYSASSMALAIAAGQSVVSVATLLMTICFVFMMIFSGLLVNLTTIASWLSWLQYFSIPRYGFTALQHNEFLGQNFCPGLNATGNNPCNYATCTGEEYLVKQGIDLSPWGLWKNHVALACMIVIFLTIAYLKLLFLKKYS
# [9] = IP 800 mg/kg per week for six weeks
# [10] = u-statistics for multivariate data
compound,measurement,setting,value
2-hydroxypropyl-alpha-cyclodextrin [HP-α-CD],"cell migration / wound closure, concentration dependence","[1]; 2 h treatment, MDA-MB 231 and MCF-7",migration decreased with higher concentration
same,"effect on migration, HP-α-CD versus HP-β-CD",[1]; MDA-MB 231 and MCF-7,stronger effect on migration than HP-β-CD
same,"effect on migration, HP-α-CD versus HP-β-CD","[1]; MDA-MB 231 and MCF-7, listed as HPαCD",twice as effective as HP-β-CD
same,"inhibition of migration, 1 mM HP-α-CD versus 2 mM HP-β-CD",[1],superior to inhibition at 2 mM HP-β-CD
same,"inhibition of migration, 1 mM HP-α-CD versus 2 mM HP-β-CD",[1]; listed as HPαCD,more effective than 2 mM HPβCD
same,"Tumor volume, median",[2]; [9],356 mm3
same,effect on tumor volume,[2]; [9],more effective than HP-β-CD
same,"plasma cytokines (IL-1β, IL-18, IL-6, IL-8, IL-17A, GM-CSF) versus Vehicle",[2]; conventional 0.05 level,not significant only in IL-6
same,mice that did not develop lung metastases,[2]; groups of 15 mice,5 mice
same,mice who died,[2]; groups of 15 mice,one
same,comprehensive analysis of all six plasma cytokine markers,[2]; [10],more effective than HP-β-CD
same,lung and liver metastases overall,[2]; [10],more effective
same,decline in bodyweight,HTT mice,reduced decline in bodyweight
same,bodyweight growth,SOD1 mice,continued to grow for at least two more weeks
same,"lysophospholipids in urine (fractions 9 and 10, LPC)",[3],higher than in all other groups
same,IC50,erythrocytes,> 100 mM
same,level of membrane cholesterol,SwN2a cells,reduced
same,levels of Aβ42,SwN2a cells,dramatically lowered
same,cholesterol accumulation,Npc1−/− mice,"reduces cholesterol accumulation, albeit not as effectively as HP-β-CD"
same,whole blood TD50,whole blood,360 mM/L
same,BBB breakdown,BBB,2.5 mM
same,toxicity on the BBB model,BBB,similarly safe
same,cytotoxicity,[4],less cytotoxic than α-CD
CN1CCCC1c1cccnc1 (stereo not shown) [nicotine],transported through the BBB,"BBB; after 2 h of incubation, in vitro",96%
"OC[C@H]1O[C@@H]2O[C@H]3[C@H](O)[C@@H](O)[C@@H](O[C@H]4[C@H](O)[C@@H](O)[C@@H](O[C@H]5[C@H](O)[C@@H](O)[C@@H](O[C@H]6[C@H](O)[C@@H](O)[C@@H](O[C@H]7[C@H](O)[C@@H](O)[C@@H](O[C@H]8[C@H](O)[C@@H](O)[C@@H](O[C@H]1[C@H](O)[C@H]2O)O[C@@H]8CO)O[C@@H]7CO)O[C@@H]6CO)O[C@@H]5CO)O[C@@H]4CO)O[C@@H]3CO [β-CD, beta-cyclodextrin, reference compound]",half-life (t1/2) after i.v. in rats,[5],20 min
same,whole blood TD50,whole blood,3.6 mM/L
same,"i.v. toxicity, 1 g/kg daily",rats,all died ≤ 4 d
same,LD50 i.v./i.p. in mice/rats,mice/rats,0.8/1.0 ^4) g/kg
same,Transport across BBB,"BBB; 2 h, 1 mM",26.7 (1 mM) %
same,toxicity on the BBB model,BBB,similarly safe
same,caspase-dependent apoptotic cell death,keratinocytes,induces caspase-dependent apoptotic cell death
methyl-β-cyclodextrin [M-β-CD],reduction of lysosomal storage,[6],most effective cyclodextrin
same,co-location of α-synuclein with the cell membrane,[7],dramatically reduced
same,decrease in activity of BCRP,[8],40%
